Target: T1, human GPR120 (Homo sapiens, UniProt Q5NUL3)
T1 construct: expressed in transfected cells
T1 sequence (Q5NUL3 1-361): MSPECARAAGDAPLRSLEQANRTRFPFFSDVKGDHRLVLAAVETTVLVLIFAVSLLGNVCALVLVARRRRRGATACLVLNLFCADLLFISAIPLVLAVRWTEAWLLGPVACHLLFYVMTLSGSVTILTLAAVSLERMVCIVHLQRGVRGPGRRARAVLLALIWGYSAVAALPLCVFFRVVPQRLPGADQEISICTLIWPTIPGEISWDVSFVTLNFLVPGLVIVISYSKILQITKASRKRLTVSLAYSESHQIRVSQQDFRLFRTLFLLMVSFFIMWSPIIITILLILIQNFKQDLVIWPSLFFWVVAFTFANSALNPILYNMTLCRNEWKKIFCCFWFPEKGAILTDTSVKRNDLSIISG
Assay: Measurement of intracellular calcium concentration (FLIPR), GPR120 agonist action
Format: cell-based
Settings: human GPR120 expression CHO cells, Fluo-4 AM, read-out: IC50 (GPR120 agonist action)

| Compound | EC50 |
| --- | --- |
| Oc1cc(-c2ccc(OCc3cccc(Oc4ccccc4)n3)cc2)on1 [Example 3, 5-(4-((6-phenoxypyridin-2-yl)methoxy)phenyl)isoxazol-3-ol] | 180 nM |
| Oc1cc(-c2ccc(OCc3ccccc3Oc3ccccc3)nc2)on1 [Example 9, 5-(6-((2-phenoxybenzyl)oxy)pyridin-3-yl)isoxazol-3-ol] | 180 nM |
| CC(C)Sc1ncccc1COc1ccc(-c2cc(O)no2)cc1 [Example 15, 5-(4-((2-(isopropylthio)pyridin-3-yl)methoxy)phenyl)isoxazol-3-ol] | 70 nM |
| Oc1cc(-c2cc(F)c(OCc3ccccc3Oc3ccccc3)c(F)c2)on1 [Example 26, 5-(3,5-difluoro-4-((2-phenoxybenzyl)oxy)phenyl)isoxazol-3-ol] | 300 nM |
| Cc1oc(-c2ccccc2)nc1CCOc1ccc(-c2cc(O)no2)cc1 [Example 33, 5-(4-(2-(5-methyl-2-phenyl-1,3-oxazol-4-yl)ethoxy)phenyl)isoxazol-3-ol] | 620 nM |

Next, values leading:

| EC50 | Compound |
| --- | --- |
| 100 nM | CCOc1cccc(OCCc2ccc(-c3cc(O)no3)cc2)c1 [Example 36, 5-(4-(2-(3-ethoxyphenoxy)ethyl)phenyl)isoxazol-3-ol] |
| 250 nM | Oc1cc(-c2ccc(OCCc3cccc(Oc4ccccc4)c3)cc2)on1 [Example 38] |
| 150 nM | CC(C)Nc1cccc(CCOc2ccc(-c3cc(O)no3)cc2)c1 [Example 41] |
| 280 nM | COCc1cccc(CCOc2ccc(-c3cc(O)no3)cc2)c1 [Example 43, 5-(4-(2-(3-(methoxymethyl)phenyl)ethoxy)phenyl)isoxazol-3-ol] |
| 170 nM | Oc1cc(-c2ccc(COc3cccc(Oc4ccccc4)c3)cc2)on1 [Example 45, 5-(4-((3-phenoxyphenoxy)methyl)phenyl)isoxazol-3-ol] |

— patent US8367708B2, “Phenyl-isoxazol-3-ol derivative” (MSD K.K., priority 2006, dated 2013)
